Counter-ions that a name gives are not always drawn.
Assays:
[1] = target: T1, hNav1.7 (Homo sapiens (Human), UniProt Q15858); experiment: Tritiated compound binding to membranes from cells expressing hNav1.7 and the β1 subunit, modified protocol (LBA, Ex. 243B); details: 300 pM [3H]compound, room temperature, read-out: Nav1.7 LBA (Ex. 243B) IC50
Target sequence in this assay (Q15858 whole entry, looked up): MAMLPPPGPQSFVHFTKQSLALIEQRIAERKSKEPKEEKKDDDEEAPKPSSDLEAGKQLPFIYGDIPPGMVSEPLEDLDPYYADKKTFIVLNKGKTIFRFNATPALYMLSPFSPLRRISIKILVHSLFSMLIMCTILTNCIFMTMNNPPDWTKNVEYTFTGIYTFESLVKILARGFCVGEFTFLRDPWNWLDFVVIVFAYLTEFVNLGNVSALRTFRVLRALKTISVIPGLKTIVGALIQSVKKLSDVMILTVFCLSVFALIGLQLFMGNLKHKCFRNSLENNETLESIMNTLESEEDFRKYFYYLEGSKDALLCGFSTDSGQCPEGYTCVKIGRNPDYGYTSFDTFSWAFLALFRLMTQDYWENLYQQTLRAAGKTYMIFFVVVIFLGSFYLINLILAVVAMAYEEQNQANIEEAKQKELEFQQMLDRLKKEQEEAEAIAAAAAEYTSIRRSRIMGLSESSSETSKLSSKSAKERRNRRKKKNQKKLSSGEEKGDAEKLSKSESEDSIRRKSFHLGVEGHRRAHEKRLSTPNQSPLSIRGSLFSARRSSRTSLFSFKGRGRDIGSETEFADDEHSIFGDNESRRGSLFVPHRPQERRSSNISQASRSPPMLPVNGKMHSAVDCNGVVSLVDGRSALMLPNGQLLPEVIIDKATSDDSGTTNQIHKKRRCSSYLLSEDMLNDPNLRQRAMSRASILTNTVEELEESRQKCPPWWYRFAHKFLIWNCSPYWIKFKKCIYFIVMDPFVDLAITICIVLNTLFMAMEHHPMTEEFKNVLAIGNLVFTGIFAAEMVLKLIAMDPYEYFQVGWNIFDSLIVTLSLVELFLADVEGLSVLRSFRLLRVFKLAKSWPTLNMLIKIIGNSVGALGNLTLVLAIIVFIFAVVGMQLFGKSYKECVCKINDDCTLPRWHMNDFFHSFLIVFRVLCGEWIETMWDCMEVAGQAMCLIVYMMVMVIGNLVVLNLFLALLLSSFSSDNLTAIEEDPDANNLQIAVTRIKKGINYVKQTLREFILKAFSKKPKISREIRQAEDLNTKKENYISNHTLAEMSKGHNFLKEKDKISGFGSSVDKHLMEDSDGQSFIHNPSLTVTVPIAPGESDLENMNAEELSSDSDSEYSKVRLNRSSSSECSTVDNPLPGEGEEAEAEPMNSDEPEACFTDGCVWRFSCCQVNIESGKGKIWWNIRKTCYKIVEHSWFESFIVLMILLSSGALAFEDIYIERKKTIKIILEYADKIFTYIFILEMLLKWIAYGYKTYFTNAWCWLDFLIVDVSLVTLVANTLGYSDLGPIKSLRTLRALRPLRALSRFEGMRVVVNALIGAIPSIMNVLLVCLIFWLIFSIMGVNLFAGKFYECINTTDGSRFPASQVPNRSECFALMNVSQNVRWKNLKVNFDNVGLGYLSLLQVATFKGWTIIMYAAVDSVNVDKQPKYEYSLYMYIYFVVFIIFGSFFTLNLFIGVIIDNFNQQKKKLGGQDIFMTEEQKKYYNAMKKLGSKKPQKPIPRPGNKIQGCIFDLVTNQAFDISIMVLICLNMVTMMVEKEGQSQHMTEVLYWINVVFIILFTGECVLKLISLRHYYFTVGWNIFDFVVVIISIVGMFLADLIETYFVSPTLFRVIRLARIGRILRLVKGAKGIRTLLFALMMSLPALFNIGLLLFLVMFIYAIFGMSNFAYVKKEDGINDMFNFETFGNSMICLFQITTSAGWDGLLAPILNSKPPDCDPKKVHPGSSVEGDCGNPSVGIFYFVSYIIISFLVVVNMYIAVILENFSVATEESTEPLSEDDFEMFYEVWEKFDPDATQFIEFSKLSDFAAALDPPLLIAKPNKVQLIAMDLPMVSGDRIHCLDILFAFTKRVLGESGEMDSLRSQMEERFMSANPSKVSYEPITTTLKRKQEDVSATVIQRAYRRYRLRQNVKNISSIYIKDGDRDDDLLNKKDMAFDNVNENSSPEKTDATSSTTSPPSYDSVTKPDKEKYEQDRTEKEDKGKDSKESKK
Target sequence in this assay (Q07699 whole entry partner, looked up): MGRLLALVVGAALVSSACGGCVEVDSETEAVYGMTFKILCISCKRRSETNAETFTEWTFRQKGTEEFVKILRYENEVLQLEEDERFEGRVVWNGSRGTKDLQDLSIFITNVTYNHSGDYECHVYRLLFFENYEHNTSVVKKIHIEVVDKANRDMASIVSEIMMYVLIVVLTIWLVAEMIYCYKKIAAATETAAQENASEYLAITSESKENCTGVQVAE

[2] = target: T1, hNav1.7; experiment: Patch voltage clamp electrophysiology assay (EP), Syncropatch 384PE, CHO cells expressing Nav1.7; format: cell-based; details: holding potential -50 mV; […] compound incubation; read-out: EP_SP hNav1.7 (Ex. 243B) IC50
Experimental: Electrophysiological Assay (EP) (In Vitro Assay)
The following voltage clamp electrophysiology studies were performed on representative compounds using cells heterologously expressing Nav1.7 or Nav1.5 channels. cDNAs for Nav1.7 (NM_002977) and Nav1.5 (AC137587) were stably expressed in Chinese Hamstr Ovary (CHO) cells and CHL (Chinese Hamster Lung) cells respectively. […] Internal solution consists of (in mM): 110 […], 10 […], 20 EGTA, and 10 Hepes (pH adjusted to 7.2); and external solution contains (in mM): 60 NMDG, 80 NaCl, 4 KCl, 1 MgCl2, 2 CaCl2, 2 D-Glucose monohydrate, 10 Hepes (pH adjusted to 7.4 with NaOH).
The chip is moved into the measuring head and the instrument primes the chip with external and internal solutions. […] cells are added to the chip from a cell hotel, and a negative pressure of −50 mBar is applied to form a seal. Following treatment with seal enhancer solution and wash-off with external solution, negative pressure of −250 mbar is applied for 1 second to achieve the whole-cell configuration, followed by three washing steps in external solution. 20 μl of compounds is added to 40 μl in each well (1:3 dilution of compounds), and after mixing, 20 μl is removed so the volume is retained at 40 μl.
For voltage protocol, an holding potential of −50 mV is applied during the whole experiment. A depolarizing step is applied to −10 mV for 10 ms, followed by a hyperpolarization step to −150 mV for 20 ms to allow channel recovery from inactivation. A second depolarizing step is applied from −150 mV to −10 mV for 10 ms, where currents were measured to derive blocking effects of compounds. Inhibition is determined based on 7.5 min of compound incubation.
Target sequence in this assay (Q15858 other isoform, or with tags, fused parts or gaps): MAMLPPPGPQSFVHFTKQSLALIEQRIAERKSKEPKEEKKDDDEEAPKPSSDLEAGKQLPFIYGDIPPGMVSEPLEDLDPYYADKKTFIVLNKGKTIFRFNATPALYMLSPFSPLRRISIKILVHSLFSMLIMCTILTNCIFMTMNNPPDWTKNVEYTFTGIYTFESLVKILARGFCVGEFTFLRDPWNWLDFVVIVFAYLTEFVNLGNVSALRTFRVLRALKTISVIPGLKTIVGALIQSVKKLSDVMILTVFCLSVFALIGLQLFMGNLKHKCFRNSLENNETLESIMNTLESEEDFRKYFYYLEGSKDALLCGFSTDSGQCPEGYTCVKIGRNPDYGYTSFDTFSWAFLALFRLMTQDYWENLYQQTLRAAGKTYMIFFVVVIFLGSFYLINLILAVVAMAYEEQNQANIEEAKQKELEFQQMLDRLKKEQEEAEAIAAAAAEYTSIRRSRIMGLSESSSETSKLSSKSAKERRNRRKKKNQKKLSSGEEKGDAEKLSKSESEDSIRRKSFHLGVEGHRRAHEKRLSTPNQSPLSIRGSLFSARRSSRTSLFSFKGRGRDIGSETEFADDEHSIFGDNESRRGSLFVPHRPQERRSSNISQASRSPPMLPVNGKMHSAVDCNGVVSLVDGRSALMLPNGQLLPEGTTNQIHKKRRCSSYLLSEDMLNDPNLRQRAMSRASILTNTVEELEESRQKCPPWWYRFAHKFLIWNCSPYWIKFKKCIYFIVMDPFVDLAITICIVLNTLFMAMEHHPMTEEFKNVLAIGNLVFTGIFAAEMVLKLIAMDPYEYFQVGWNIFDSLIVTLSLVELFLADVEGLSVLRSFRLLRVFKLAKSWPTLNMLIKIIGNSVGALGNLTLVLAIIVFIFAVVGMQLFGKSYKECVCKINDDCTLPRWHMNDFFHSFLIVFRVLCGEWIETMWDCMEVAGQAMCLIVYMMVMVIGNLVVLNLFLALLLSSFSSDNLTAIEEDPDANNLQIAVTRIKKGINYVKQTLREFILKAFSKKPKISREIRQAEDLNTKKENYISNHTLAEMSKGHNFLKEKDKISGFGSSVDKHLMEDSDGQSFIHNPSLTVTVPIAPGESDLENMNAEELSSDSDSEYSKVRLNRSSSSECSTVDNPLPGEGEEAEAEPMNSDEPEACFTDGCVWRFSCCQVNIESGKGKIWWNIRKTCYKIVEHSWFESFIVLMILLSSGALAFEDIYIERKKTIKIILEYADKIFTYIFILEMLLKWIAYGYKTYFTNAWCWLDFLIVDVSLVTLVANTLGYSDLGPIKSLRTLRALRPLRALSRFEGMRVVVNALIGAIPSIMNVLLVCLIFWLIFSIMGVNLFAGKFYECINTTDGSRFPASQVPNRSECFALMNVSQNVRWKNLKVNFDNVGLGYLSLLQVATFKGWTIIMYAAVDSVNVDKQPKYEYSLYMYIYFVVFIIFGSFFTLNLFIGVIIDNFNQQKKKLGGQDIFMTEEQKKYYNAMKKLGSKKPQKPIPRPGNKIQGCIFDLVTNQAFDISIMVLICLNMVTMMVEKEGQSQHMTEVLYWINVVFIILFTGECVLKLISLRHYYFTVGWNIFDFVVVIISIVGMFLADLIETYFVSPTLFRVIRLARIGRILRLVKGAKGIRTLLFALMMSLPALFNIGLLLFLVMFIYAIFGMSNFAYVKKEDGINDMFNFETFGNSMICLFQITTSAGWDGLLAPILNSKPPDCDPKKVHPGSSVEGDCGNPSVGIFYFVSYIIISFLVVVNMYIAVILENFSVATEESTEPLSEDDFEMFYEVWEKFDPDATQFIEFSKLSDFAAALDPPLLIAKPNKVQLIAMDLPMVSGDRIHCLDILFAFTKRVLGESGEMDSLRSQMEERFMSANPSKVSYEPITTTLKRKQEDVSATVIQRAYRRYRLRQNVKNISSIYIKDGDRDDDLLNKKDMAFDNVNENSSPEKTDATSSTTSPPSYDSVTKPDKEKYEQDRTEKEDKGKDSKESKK

`CN(C)[C@H]1CCCC[C@@H]1Oc1cc(F)c(S(=O)(=O)Nc2cccc(F)n2)cc1C1CC1` [Example 114, 5-Cyclopropyl-4-(((1S,2S)-2-(dimethylamino)cyclohexyl)oxy)-2-fluoro-N-(6-fluoropyridin-2-yl)benzenesulfonamide formate] gave an IC50 [1] of 0.264 µM and an IC50 [2] of 0.0331 µM.
Compound `CN(CC(C)(C)O)[C@H]1CCCC[C@@H]1Nc1cc(F)c(S(=O)(=O)Nc2nccs2)cc1Cl` [Example 116, 5-Chloro-2-fluoro-4-(((1S,2S)-2-((2-hydroxy-2-methylpropyl)(methyl)amino)cyclohexyl)amino)-N-(thiazol-2-yl)benzenesulfonamide formate] has an IC50 [1] of 0.307 µM and an IC50 [2] of 0.0182 µM.
With `O=S(=O)(Nc1cccc(F)n1)c1cc(Cl)c(N[C@@H]2CCCC[C@H]2N2CCCCC2)cc1F` [Example 117, 5-chloro-2-fluoro-N-(6-fluoropyridin-2-yl)-4-(((1R,2R)-2-(piperidin-1-yl)cyclohexyl)amino)benzenesulfonamide] the IC50 [1] was 2.22 µM and the IC50 [2] was 0.97 µM.
With `CN(CCCO)[C@H]1CCCC[C@@H]1Nc1cc(F)c(S(=O)(=O)Nc2cccc(F)n2)cc1Cl` [Example 122, 5-chloro-2-fluoro-N-(6-fluoropyridin-2-yl)-4-(((1S,2S)-2-((3-hydroxypropyl)(methyl)amino)cyclohexyl)amino)benzenesulfonamide] the IC50 [1] was 0.205 µM and the IC50 [2] was 0.0336 µM.
`O=S(=O)(Nc1cccc(F)n1)c1cc(Cl)c(N[C@H]2CCCC[C@@H]2N2CCCCC2)cc1F` [Example 123, 5-chloro-2-fluoro-N-(6-fluoropyridin-2-yl)-4-(((1S,2S)-2-(piperidin-1-yl)cyclohexyl)amino)benzenesulfonamide] showed an IC50 [1] of 0.0175 µM and an IC50 [2] of 0.00454 µM.
Work on `CN(CCC(C)(C)O)[C@H]1CCCC[C@@H]1Nc1cc(F)c(S(=O)(=O)Nc2cccc(F)n2)cc1Cl` [Example 124, 5-chloro-2-fluoro-N-(6-fluoropyridin-2-yl)-4-(((1S,2S)-2-((3-hydroxy-3-methylbutyl)(methyl)amino)cyclohexyl)amino)benzenesulfonamide] yielded an IC50 [1] of 1.23 µM and an IC50 [2] of 0.107 µM.
`CN(CCC#N)[C@H]1CCCC[C@@H]1Nc1cc(F)c(S(=O)(=O)Nc2nccs2)cc1Cl` [Example 125, 5-Chloro-4-(((1S,2S)-2-((2-cyanoethyl)(methyl)amino)cyclohexyl)amino)-2-fluoro-N-(thiazol-2-yl)benzenesulfonamide] gave an IC50 [1] of 0.204 µM and an IC50 [2] of 0.00753 µM.
Compound `CN(CCO)[C@H]1CCCC[C@@H]1Nc1cc(F)c(S(=O)(=O)Nc2cccc(F)n2)cc1C1CC1` [Example 128, 5-Cyclopropyl-2-fluoro-N-(6-fluoropyridin-2-yl)-4-(((1S,2S)-2-((2-hydroxyethyl)(methyl)amino)cyclohexyl)amino)benzenesulfonamide formate] has an IC50 [1] of 0.0228 µM and an IC50 [2] of 0.00956 µM.
In the case of `CN(C)[C@H]1C[C@@H](c2cccc(C(F)(F)F)c2)CC[C@@H]1Nc1cc(F)c(S(=O)(=O)Nc2nccs2)cc1Cl` [Example 129, 5-chloro-4-(((1S,2S,4S)-2-(dimethylamino)-4-(3-(trifluoromethyl)phenyl)cyclohexyl)amino)-2-fluoro-N-(thiazol-2-yl)benzenesulfonamide formate], the IC50 [1] is reported as 0.000255 µM and the IC50 [2] is reported as 0.000372 µM.
`CN(C)[C@H]1CC=C(C(F)(F)F)C[C@@H]1Nc1cc(F)c(S(=O)(=O)Nc2nccs2)cc1Cl` [Example 130, 5-chloro-4-(((1S,6S)-6-(dimethylamino)-3-(trifluoromethyl)cyclohex-3-en-1-yl)amino)-2-fluoro-N-(thiazol-2-yl)benzenesulfonamide] gave an IC50 [1] of 0.0759 µM and an IC50 [2] of 0.00992 µM.
`O=S(=O)(Nc1nccs1)c1cc(Cl)c(N[C@H]2CCCC[C@@H]2N2CCC(O)CC2)cc1F` [Example 131, 5-chloro-2-fluoro-4-(((1 S,2S)-2-(4-hydroxypiperidin-1-yl)cyclohexyl)amino)-N-(thiazol-2-yl)benzenesulfonamide] gave an IC50 [1] of 0.201 µM and an IC50 [2] of 0.00595 µM.
`CN(C)[C@H]1CCCC[C@@H]1N1CCOc2cc(S(=O)(=O)Nc3nccs3)c(F)cc21` [Example 132, 4-((1 S,2S)-2-(dimethylamino)cyclohexyl)-6-fluoro-N-(thiazol-2-yl)-3,4-dihydro-2H-benzo[b][1,4]oxazine-7-sulfonamide] gave an IC50 [1] of 0.306 µM and an IC50 [2] of 0.014 µM.
For `O=S(=O)(Nc1nccs1)c1cc(Cl)c(N[C@H]2CCCC[C@@H]2N2CCC[C@H]2CO)cc1F` [Example 134, 5-chloro-2-fluoro-4-(((1S,2S)-2-((S)-2-(hydroxymethyl)pyrrolidin-1-yl)cyclohexyl)amino)-N-(thiazol-2-yl)benzenesulfonamide], the IC50 [1] was 0.279 µM and the IC50 [2] was 0.0186 µM.
`CN(CCCF)[C@H]1CCCC[C@@H]1Nc1cc(F)c(S(=O)(=O)Nc2nccs2)cc1Cl` [Example 135, 5-chloro-2-fluoro-4-(((1S,2S)-2-((3-fluoropropyl)(methyl)amino)cyclohexyl)amino)-N-(thiazol-2-yl)benzenesulfonamide] gave an IC50 [1] of 0.313 µM and an IC50 [2] of 0.0328 µM.
With `CN(CC1(F)CC1)[C@H]1CCCC[C@@H]1Nc1cc(F)c(S(=O)(=O)Nc2nccs2)cc1Cl` [Example 136, 5-chloro-2-fluoro-4-(((1S,2S)-2-(((1-fluorocyclopropyl)methyl)(methyl)amino)cyclohexyl)amino)-N-(thiazol-2-yl)benzenesulfonamide] the IC50 [1] was 0.493 µM and the IC50 [2] was 0.0301 µM.
`CN(C)[C@H]1C[C@H](c2cccc(C(F)(F)F)c2)CC[C@@H]1Nc1cc(F)c(S(=O)(=O)Nc2nccs2)cc1Cl` [Example 137, 5-chloro-4-(((1S,2S,4R)-2-(dimethylamino)-4-(3-(trifluoromethyl)phenyl)cyclohexyl)amino)-2-fluoro-N-(thiazol-2-yl)benzenesulfonamide] gave an IC50 [1] of 0.00357 µM and an IC50 [2] of 0.00124 µM.
Compound `CN(CCO)[C@H]1C[C@@H](C(F)(F)F)CC[C@@H]1Nc1cc(F)c(S(=O)(=O)Nc2nccs2)cc1Cl` [Example 138, 5-chloro-2-fluoro-4-(((1S,2S,4S)-2-((2-hydroxyethyl)(methyl)amino)-4-(trifluoromethyl)cyclohexyl)amino)-N-(thiazol-2-yl)benzenesulfonamide] has an IC50 [1] of 0.00943 µM and an IC50 [2] of 0.00321 µM.
`CN(C[C@@H](O)C1CC1)[C@H]1CCCC[C@@H]1Nc1cc(F)c(S(=O)(=O)Nc2nccs2)cc1Cl` [Example 139, 5-Chloro-4-(((1S,2S)-2-(((S)-2-cyclopropyl-2-hydroxyethyl)(methyl)amino)cyclohexyl)amino)-2-fluoro-N-(thiazol-2-yl)benzenesulfonamide] was tested, and the IC50 [1] was 0.291 µM and the IC50 [2] was 0.0456 µM.
Work on `CN(c1cnn(C)c1)[C@H]1CCCC[C@@H]1Nc1cc(F)c(S(=O)(=O)Nc2nccs2)cc1Cl` [Example 140, 5-chloro-2-fluoro-4-(((1S,2S)-2-(methyl(1-methyl-1H-pyrazol-4-yl)amino)cyclohexyl)amino)-N-(thiazol-2-yl)benzenesulfonamide] yielded an IC50 [1] of 0.17 µM and an IC50 [2] of 0.0132 µM.
Work on `CN(C)[C@H]1CC=CC[C@@H]1Nc1cc(F)c(S(=O)(=O)Nc2nccs2)cc1Cl` [Example 141, 5-Chloro-4-(((1S,6S)-6-(dimethylamino)cyclohex-3-en-1-yl)amino)-2-fluoro-N-(thiazol-2-yl)benzenesulfonamide formate] yielded an IC50 [1] of 0.275 µM and an IC50 [2] of 0.0127 µM.
Compound `CN(C[C@H](O)C1CC1)[C@H]1CCCC[C@@H]1Nc1cc(F)c(S(=O)(=O)Nc2nccs2)cc1Cl` [Example 143, 5-Chloro-4-(((1S,2S)-2-(((R)-2-cyclopropyl-2-hydroxyethyl)(methyl)amino)cyclohexyl)amino)-2-fluoro-N-(thiazol-2-yl)benzenesulfonamide] has an IC50 [1] of 0.418 µM and an IC50 [2] of 0.0193 µM.
In the case of `CN(C)[C@H]1CCCCC[C@@H]1Nc1cc(F)c(S(=O)(=O)Nc2nccs2)cc1Cl` [Example 144, 5-chloro-4-(((1S,2S)-2-(dimethylamino)cycloheptyl)amino)-2-fluoro-N-(thiazol-2-yl)benzenesulfonamide formate], the IC50 [1] is reported as 0.374 µM and the IC50 [2] is reported as 0.0258 µM.
Compound `CN(C)[C@@H]1CCCCC[C@H]1Nc1cc(F)c(S(=O)(=O)Nc2nccs2)cc1Cl` [Example 145, 5-chloro-4-(((1R,2R)-2-(dimethylamino)cycloheptyl)amino)-2-fluoro-N-(thiazol-2-yl)benzenesulfonamide formate] has an IC50 [1] of 2 µM and an IC50 [2] of 0.395 µM.
`CC(C)C(=O)N1CC(N(C)[C@H]2CCCC[C@@H]2Nc2cc(F)c(S(=O)(=O)Nc3nccs3)cc2Cl)C1` [Example 146, 5-Chloro-2-fluoro-4-(((1S,2S)-2-((1-isobutyrylazetidin-3-yl)(methyl)amino)cyclohexyl)amino)-N-(thiazol-2-yl)benzenesulfonamide] showed an IC50 [1] of 0.154 µM and an IC50 [2] of 0.0154 µM.
